# Source: ChEMBL document CHEMBL1201862, “PubChem BioAssay data set” (2004)
# Activity calls are given as the source filed them. Cut-off read from the data, not from the text of the source: actives have a measured IC50 and inactives only a lower limit.
# Target: Envelope glycoprotein gp160 (Human immunodeficiency virus 1, UniProt Q6QLK5)
# Assay: inhibitors of HIV fusion peptide binding, primary screen, biochemical, uHTS, fluorescence dequenching (AID 1986)
# Envelope glycoprotein gp160, sequence (Q6QLK5 whole entry, the tested form may be a part): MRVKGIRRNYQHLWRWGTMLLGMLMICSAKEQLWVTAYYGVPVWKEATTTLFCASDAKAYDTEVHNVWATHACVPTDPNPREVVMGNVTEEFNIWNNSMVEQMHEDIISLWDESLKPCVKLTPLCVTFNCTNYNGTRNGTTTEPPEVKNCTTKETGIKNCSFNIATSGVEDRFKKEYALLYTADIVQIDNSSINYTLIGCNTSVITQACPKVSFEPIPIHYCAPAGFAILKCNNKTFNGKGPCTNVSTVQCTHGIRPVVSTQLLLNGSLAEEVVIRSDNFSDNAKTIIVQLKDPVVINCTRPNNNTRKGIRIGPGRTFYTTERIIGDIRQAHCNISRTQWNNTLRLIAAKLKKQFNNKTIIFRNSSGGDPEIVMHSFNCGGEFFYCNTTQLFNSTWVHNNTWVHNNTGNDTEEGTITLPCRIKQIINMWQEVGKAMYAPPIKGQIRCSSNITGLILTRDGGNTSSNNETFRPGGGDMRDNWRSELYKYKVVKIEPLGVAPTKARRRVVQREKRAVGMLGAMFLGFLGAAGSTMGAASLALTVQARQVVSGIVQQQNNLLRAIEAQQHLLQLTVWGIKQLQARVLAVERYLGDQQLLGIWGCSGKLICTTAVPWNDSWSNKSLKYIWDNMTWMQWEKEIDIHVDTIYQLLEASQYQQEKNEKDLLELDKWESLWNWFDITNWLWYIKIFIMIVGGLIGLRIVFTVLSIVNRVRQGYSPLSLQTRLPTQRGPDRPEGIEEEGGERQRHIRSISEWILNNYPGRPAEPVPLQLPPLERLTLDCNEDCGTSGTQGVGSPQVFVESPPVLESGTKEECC
row,Compound,IC50
1,O=C(O)CN1C(=O)/C(=C\c2cc(Br)ccc2OCc2ccc([N+](=O)[O-])cc2)SC1=S,10.1 µM (active)
2,Cc1c(CC(=O)O)c(=O)oc2c(C)c3occ(-c4ccc(Br)cc4)c3cc12,27.6 µM (active)
3,Cc1cc(/C=C2\C(=N)N3N=C(S(C)(=O)=O)SC3=NC2=O)c(C)n1Cc1ccccc1,26.2 µM (active)
4,CC(C)(C)c1cc(-c2csc(Nc3ccccc3)[n+]2Cc2ccc(C(=O)O)cc2)cc(C(C)(C)C)c1O,12.9 µM (active)
